Test results as given in PubChem BioAssay (NCI).
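These data come from cells grown in 96-well plates and exposed to compound for 48 hours at five concentrations. At the GI50, growth is halved. TGI denotes the concentration required for complete inhibition of growth.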

Experiments:
Test in all cases: DTP human tumour cell line panel, 48 h
CCRF-CEM leukemia = system: CCRF-CEM leukemia
EKVX NSCLC = system: EKVX NSCLC
HOP-92 NSCLC = system: HOP-92 NSCLC
HS 578T breast = system: HS 578T breast
KM12 colon = system: KM12 colon
NCI-H226 lung = system: NCI-H226 lung
SN12C renal = system: SN12C renal
SR leukemia = system: SR leukemia
SW-620 colon = system: SW-620 colon
HCC-2998 colon = system: HCC-2998 colon

SMILES | TGI (CCRF-CEM leukemia) [µM] | TGI (EKVX NSCLC) [µM] | TGI (HOP-92 NSCLC) [µM] | TGI (HS 578T breast) [µM] | TGI (KM12 colon) [µM] | TGI (NCI-H226 lung) [µM] | TGI (SN12C renal) [µM] | TGI (SR leukemia) [µM] | TGI (SW-620 colon) [µM] | TGI (HCC-2998 colon) [µM] | GI50 (CCRF-CEM leukemia) [nM] | GI50 (HCC-2998 colon) [µM] | GI50 (HS 578T breast) [nM] | GI50 (SR leukemia) [nM] | GI50 (EKVX NSCLC) [nM] | GI50 (HOP-92 NSCLC) [µM] | GI50 (SN12C renal) [nM] | GI50 (SW-620 colon) [nM]
Cc1csc2c(=O)n(COCc3ccccc3)c(=O)[nH]c12 | > 100 | > 100 | > 100 | > 100 | > 100 | > 100 | > 100 | > 100 | > 100 | – | – | – | – | – | – | – | – | –
C[C@]12CCC(=O)C=C1CC[C@@H]1C2CC[C@@]2(C)C1CC[C@@H]2OC(=O)C12OC1CCC2=O (some centres not stated) | 32.6 | 31.9 | 37.2 | – | 35 | 38.2 | 55.5 | 53.4 | 32.1 | 59 | – | – | – | – | – | – | – | –
Cc1cc(=O)[nH]c(NNC(C#N)c2ccc(N(C)C)cc2)n1 (configuration not stated) | > 100 | – | > 100 | – | > 100 | > 100 | > 100 | > 100 | > 100 | – | – | – | – | – | – | – | – | –
CNC(=O)c1cc(Oc2cccc3nc(NC(=O)Nc4ccc(F)cc4F)ccc23)ccn1 | > 50 | – | – | 3.99 | – | – | – | > 50 | – | > 50 | > 50000 | > 50 | 1400 | 410 | – | – | – | –
Nc1ccn(CCCC(c2ccccc2)P(=O)(O)O)c(=O)n1 (configuration not stated) | > 100 | – | > 100 | – | > 100 | – | > 100 | > 100 | > 100 | > 100 | – | – | – | – | – | – | – | –
COC(=O)[C@@H](NC(=O)c1ccc(CNC(=O)/C(C)=C/c2ccccc2)cc1)C(C)C | > 100 | > 100 | > 100 | – | > 100 | > 100 | > 100 | > 100 | > 100 | 79.9 | – | – | – | – | – | – | – | –
COCC1N=C(c2cc(OC)c(OC)c(OC)c2-c2cc3c(cc2[C@@H](C)O)OCO3)O[C@H]1c1ccccc1 (some centres not stated) | > 100 | > 95.5 | > 84.5 | – | > 100 | > 100 | > 100 | – | > 100 | > 100 | – | – | – | – | – | – | – | –
COc1cc(O)c2c(=O)c(OC)c(-c3ccc(OC)c(OC)c3)oc2c1.[Sn] | – | > 100 | – | > 100 | – | > 100 | > 100 | – | > 100 | > 100 | – | > 100 | – | – | > 100000 | – | – | –
COc1ccc2nc3c([N+](=O)[O-])ccc(NCCCN(C)C)c3c(N)c2c1 | 1.26 | 3.68 | 3.73 | 4.79 | 3.02 | 3.82 | 2.99 | 4.23 | 1.71 | – | – | – | – | – | – | – | – | –
Clc1ccc(Nc2nnc(CNc3ccc(-c4nnc(Nc5ccc(Cl)cc5)o4)cc3)o2)cc1 | > 100 | 44.4 | 48.7 | 36.7 | 23.3 | 47.3 | 36.9 | – | 51.2 | 27.8 | – | – | – | – | – | – | – | –
O=C(c1cccnc1)N1N=C(c2ccc3c(c2)OCO3)CC1(O)c1cc(F)c(Cl)cc1Cl (configuration not stated) | 75.4 | 64.5 | 68.9 | > 100 | > 100 | 33.3 | 36.5 | 76.4 | 84.5 | – | – | – | – | – | – | – | – | –
CC(C)(/C=N/O)/[N+]([O-])=C/c1ccccc1 | – | > 100 | > 100 | > 100 | > 100 | > 100 | > 100 | – | > 100 | > 100 | – | – | – | – | – | – | – | –
CC(C)(CO)NC(=O)c1cccs1 | > 100 | > 100 | > 100 | – | > 100 | – | > 100 | > 100 | > 100 | > 100 | – | – | – | – | – | – | – | –
O=C(NCCC1CN(S(=O)(=O)C(F)(F)F)c2ccccc21)OCc1ccccc1 (configuration not stated) | > 100 | > 100 | > 100 | > 100 | > 100 | – | – | > 100 | > 100 | > 100 | – | – | – | – | – | – | – | –
O=C1C=CC(=O)[C@H]2C3C=CC(C4C3C3(Cl)C(Cl)=C(Cl)[C@]4(Cl)C3(Cl)Cl)[C@@H]12 (some centres not stated) | 16.2 | 15 | 7.69 | 31.2 | 17 | 23.5 | 18.2 | 9.28 | 23.2 | – | – | – | – | – | – | – | – | –
CC1=C(C(=O)NCCCN(CCO)CCO)CC(C(=O)NCCCN(CCO)CCO)=C(C)N1 | 77.9 | > 100 | > 100 | > 100 | > 100 | > 100 | > 100 | – | > 100 | > 100 | – | – | – | – | – | – | – | –
CN(C)CCNC(=O)c1cccc2[nH]c(-c3ccc(Cl)cc3)nc12 | 35.7 | 34.3 | 17 | – | 20.9 | 14.4 | 19.4 | – | 18.3 | 16.9 | – | – | – | – | – | – | – | –
COc1ccccc1[C@@H]1CCC2CC[C@@H](c3ccccc3OC)[N+]21Cc1ccccc1 (some centres not stated) | 20.3 | 1.86 | 4.06 | 35.8 | 7.03 | 6.73 | 10.4 | 7.07 | 22.5 | – | – | – | – | – | – | – | – | –
CN(C)C1(c2cc3ccccc3s2)CCCCC1 | 0.0223 | > 100 | 63.6 | – | > 100 | > 100 | > 100 | 46.5 | > 100 | 57 | – | – | – | – | – | – | – | –
Nc1nc(N)c2nc(CNc3ccc(C(=O)NC(CCNC(=O)c4ccccc4C(=O)O)C(=O)O)cc3)cnc2n1 (configuration not stated) | > 100 | > 100 | > 100 | > 100 | > 100 | > 100 | > 100 | > 100 | > 100 | – | 6.5 | – | 490 | 4.33 | 21.4 | > 100 | 102 | 6.28
COc1c(C)c(C/C=C(\C)CCCCO)c(OC)c2ccccc12 | 63 | > 100 | 80.4 | > 100 | 54.9 | – | 52.9 | 55.6 | > 100 | 62.5 | – | – | – | – | – | – | – | –
CC(=O)Nc1ccc(C(=O)n2[nH]c(C)c(/C=C3\C(=O)C=Cc4ccccc43)c2=O)cc1 | > 100 | > 100 | – | – | > 100 | > 100 | > 100 | > 100 | > 100 | > 100 | – | – | – | – | – | – | – | –
COc1cc2c(cc1OC)-c1[nH]c3ccc([N+](=O)[O-])cc3c1CC(=O)N2 | > 37.6 | > 84.3 | > 100 | > 100 | > 56.1 | 1.66 | > 55.1 | – | > 100 | 5.6 | – | – | – | – | – | – | – | –
